“Also recorded” adds a separate entry of the source.
Assay: Comment Code material properties: vapor pressure, ClogP, probability of ingredient color instability, odor detection threshold, melamine formaldehyde PMC headspace response ratio and leakage, liquid dish neat product liquid-air partition coefficient
Assay type: physicochemical
[1] = cell strings several class symbols together, each letter is one property class of L1
[2] = Table 1 materials, each letter of the code is one property class (vapor pressure, ClogP, color instability, odor detection threshold, PMC headspace ratio, PMC leakage, liquid dish liquid-air partition coefficient)
[3] = letter codes A-L: vapor pressure, ClogP, probability of ingredient color instability, odor detection threshold, PMC headspace response ratio, PMC leakage, liquid dish liquid-air partition coefficient, Table 1 materials with at least one MORV from 1 to 5

SMILES	Comment Code [1]	Comment Code [2]	Comment Code [3]
CC(=O)CCc1ccc2c(c1)OCO2 [Material 976]		CEFGJ	
CC1(C)C2=C(CO)CCC(C)(C)C23CCC1C3 (stereo not drawn) [Material 248]	DEFHJK; also recorded: BDEFHJK		
CC(C)C(=O)OC1CC2CCC1(C)C2(C)C (stereo not drawn) [Material 229]	BDEFHIJK		
C=C1[C@H]2CC[C@H](CO)[C@@]23CC[C@H](C3)C1(C)C [Material 183]	CEFHJK		
CCCCC=CC=CC=O [Material 738]		ACHKL	
C/C=C\c1ccc(O)c(OC)c1 [Material 528]	CEFHIK		
CC1CCC2(CCCC(=O)O2)C1 (stereo not drawn) [Material 107]	BCEFGIKL		
CC=CC(=O)OCCCCCC [Material 55]	ADEFHJKL		
CCOC(=O)OC1CCCCC1C(C)(C)C (stereo not drawn) [Material 355]	BDFHJK		
C=C1C=CC(C(C)CCC=C(C)C)CC1 (stereo not drawn) [Material 614]		DEFHJK	
CC(C)C=CCO [Material 194]	ACGIKL		
C=C(C)C1CCC(C)C2=C(C1)C(C)CC2 (stereo not drawn) [Material 709]		DEFHJKL	
C=C(C)C1CCC2(C)CCC=C(C)C2C1 (stereo not drawn) [Material 692]		BDEFHJK	
CC1=CCC(CC#N)C1(C)C (stereo not drawn) [Material 585]	ACGIJKL		
COC(=O)c1ccccc1N=CCC(C)CCCC(C)(C)O (stereo not drawn) [Material 661]		DEFHJ	
C=C1CCC=C(C)CCC2C1CC2(C)C (stereo not drawn) [Material 633]		DEFHJKL	
CC1(O)CCC2=C(CCCC2(C)C)C1 (stereo not drawn) [Material 675]		DEFHJK	
CC(=O)O.CCOc1cc(C=O)ccc1O [Material 379]	CHJ		
CC=Cc1ccc(OCc2ccccc2)c(OC)c1 [Material 212]	DFHJ		
CC(C)=CCCC1=CCC(C)(C=O)CC1 (stereo not drawn) [Material 727]		DFHJK	
CC(=O)C=CC12OC1(C)CCCC2(C)C (stereo not drawn) [Material 636]		BDEFHIJK	
C=C(C)[C@@H]1CC=C(C)C(=O)C1 [Material 169]	ACGIJKL		
CCC(=O)OC(C)c1ccccc1 (stereo not drawn) [Material 96]	BCHJK		
CC(=O)OC(C)(C)C1CC=C(C)CC1 (stereo not drawn) [Material 687]	BDHJK		
CCCCCCCO [Material 282]	ACEFGIKL		

SMILES	Comment Code [1]	Comment Code [2]	Comment Code [3]
CC(=O)O[C@]1(C)CC[C@@]23C[C@@H]1C(C)(C)[C@@H]2CC[C@H]3C [Material 567]	DEFHJK	DEFHJK	
COC1=C(C)OC(C)C1=O (stereo not drawn) [Material 740]	ACEFGIJKL		
C[C@@H]1CC[C@H]2C(C)(C)[C@H]3C[C@@]12CC[C@@]3(C)O [Material 569]	DEFHJK	DEFHJK	
COc1c2ccoc2cc2oc(=O)ccc12 [Material 638]		CGJ	
C=C1C2CCC(C2)C1(C)C (stereo not drawn) [Material 589]		ADEFGIJKL	
C=CC(C)(C#N)Cc1ccccc1 (stereo not drawn) [Material 504]	BDHJK		
CC1C(C)(C)C2=C(C(=O)CCC2)C1(C)C (stereo not drawn) [Material 572]		BDEFHIJK	
CC1(O)CCC2=C(CCCC2(C)C)C1 (stereo not drawn) [Material 676]		DEFHJK	
COC(Cc1ccccc1)OC [Material 627]	DHJK	DHJK	
CCCCCCC=O [Material 284]	ACHIKL		
CCCCCCCC(=O)OC/C=C(\C)CCC=C(C)C [Material 308]	DEFHJ		
C=CC(C)(CCC=C(C)C)OC(=O)CCC (stereo not drawn) [Material 151]	BDEFHJK		
Cc1ccc(C(C)C)cc1O [Material 575]	DHIJK		
CC=Cc1ccc(O)c(OC)c1 [Material 214]	CEFHIK		
CC1C(C)(C)C2=C(C3OC(C)(C)OC3CC2)C1(C)C (stereo not drawn) [Material 23]	DEFHJK		
CC1=CCC23C(C)CCC(C(C)C)C2C13 (stereo not drawn) [Material 714]	ADEFHJKL	ADEFHJKL	
CC1(C)C2CCC3(CO3)C1C2 (stereo not drawn) [Material 617]	ACEFGIJKL		
CC(C)=CCCC(C)CCOC(=O)c1ccccc1 (stereo not drawn) [Material 515]	DFHJ		
Cc1cc(O)cc(C)c1Cl [Material 557]	BCHIJK		
CC1=CC2C(C(C)C)CCC(C)(O)C2CC1 (stereo not drawn) [Material 716]		DEFHJK	
CCOC(=O)C=Cc1ccccc1 [Material 400]	BCEFHK		
CC(C)=CCC=C(C)C1CC=C(C)CC1 (stereo not drawn) [Material 719]		DEFHJK	
CCCCCCOC(=O)CCC [Material 270]	BDEFHJKL		
CC(C)CCCC(C)CC=O (stereo not drawn) [Material 27]	ADGIJKL		

More lines, now with the values ahead:

Comment Code [1]	Comment Code [2]	Comment Code [3]	SMILES
CEFHIK			C/C=C/c1ccc(O)c(OC)c1 [Material 1084]
	BCEFHIK		Cc1cccc(CCO)c1 [Material 928]
CEFHK			Cc1n[nH]cc1-c1ccccc1 [Material 808]
	DEFHJK		CC(C)=CCC/C(C)=C/CC/C(C)=C/CO [Material 1065]
DEFHJK		DEFHJK	CC1(C)C2CCC3(C2)C1C1(CCC3(C)C)OCCO1 (stereo not drawn) [Material 1144]
	ACHKL		CCCC/C=C/C=C/C=O [Material 1064]
	DEFHJK		CC1=CC2CC(C3OCCO3)C1CC2C(C)C (stereo not drawn) [Material 912]
CHJK			C=CCOC(=O)COC1CCCCC1 [Material 918]
	BDFHJK		CC(C)(C=O)CC1=CCC2CC1C2(C)C (stereo not drawn) [Material 925]
DEFHJK		DEFHJK	C[C@@H]1CC[C@H]2[C@@H]1[C@H]1[C@@H](CC[C@]2(C)O)C1(C)C [Material 1140]
	ACGIJKL		C=CC1(C)CCC(C(=C)C)O1 (stereo not drawn) [Material 786]
BCEFGIJKL			CC/C(CC(C)CC)=N/O (stereo not drawn) [Material 1040]
ACEFHK			O=COCCc1ccccc1 [Material 956]
BDEFHIJK			CCC(C)(C)C1CCC(O)CC1 (stereo not drawn) [Material 995]
	ADEFHJKL		CCC=CCCOC(=O)CC(C)C [Material 814]
	BDEFGIKL		CCCCCCCC(C)O (stereo not drawn) [Material 839]
	BDEFHIJKL		CCCCCCC1OC(=O)CC1C (stereo not drawn) [Material 941]
DEFHIKL			CCCCCC1CCCC1O (stereo not drawn) [Material 836]
	BDEFHJKL		CCCCCCCC1CCCO1 (stereo not drawn) [Material 852]
	BCEFHJK		COCCOC(C)OCc1ccccc1 (stereo not drawn) [Material 768]
ADHIJKL			C/C=C\C(=O)/C(C)=C(/C)C(C)C [Material 986]

Comment Code [1]	Comment Code [2]	Comment Code [3]	SMILES
	BCFHJK		CCCCCCCC/C=C\CC=O [Material 884]
DEFHJK	DEFHJK		CC1=CC[C@@H]2C3CC([C@@H]2C1)[C@@]1(C3)OC1C (stereo partly drawn) [Material 1007]
ACEFGIJKL			CC1=CC(=O)C2CC1C2(C)C (stereo not drawn) [Material 883]
	ADEFHIJKL		CC(=O)OC1C2(C)CCC(C2)C1(C)C (stereo not drawn) [Material 878]
	BCHIJK		CC1=CCC(O)(C(C)C)CC1 (stereo not drawn) [Material 800]
	ADFGIJKL		CCC(C)CCCC(C)C=O (stereo not drawn) [Material 866]
BCEFGIJKL			C=C(C)C1CCC(C)(O)C1C (stereo not drawn) [Material 981]
DEFGJK	DEFGJK		O=C1CCCC=CCCCCCCCCCC1 [Material 788]
BDEFHJKL			CCOC(=O)OC1C(C)CCC(C)C1C (stereo not drawn) [Material 1005]
	BDFHJK		CC(C)c1ccc(CCC=O)cc1 [Material 826]
BCHIK			COc1cc(C)cc(O)c1 [Material 811]
	DEFHJK		CCCC(O)CCC1C(C)CCCC1(C)C (stereo not drawn) [Material 1063]
BDEFGIJKL			CC(C)CCCC(C)CCO (stereo not drawn) [Material 820]
	DEFHJK		CC1=CC2C(C(C)C)CCC(C)(O)C2CC1 (stereo not drawn) [Material 1047]
	DFHJK		O=C(Oc1ccccc1)c1ccccc1 [Material 965]
DHJK			C=C(C)C(=O)OCCc1ccccc1 [Material 971]
	BDFHJK		CCCCCCC/C=C\CCC=O [Material 1045]
BCHIK			C=Cc1ccc(O)cc1 [Material 789]
BDEFGIJKL			CCC(C)CC(CC)CCCC(C)O (stereo not drawn) [Material 779]
	DEFHJK		CC1CC(C)(C)OC(Cc2ccccc2)O1 (stereo not drawn) [Material 1003]
	ADHIJKL		COc1cc(C)ccc1C(C)C [Material 1062]
